Columns and labels:
[1] = target: T1, HSA (α-amylase derived from human salivary gland) (Homo sapiens, UniProt P0DUB6); test: Inhibition of human α-amylase activity in vitro (blue starch, Neo·Amylase Test), HSA; assay type: biochemical; settings: final concentration of inhibitor reducing 50% of the activity of the HSA solution; 37° C., 30 minutes
T1 construct: purchased International Reagents Corp., Japan Calibzyme·AMY
T1 sequence (P0DUB6 16-511): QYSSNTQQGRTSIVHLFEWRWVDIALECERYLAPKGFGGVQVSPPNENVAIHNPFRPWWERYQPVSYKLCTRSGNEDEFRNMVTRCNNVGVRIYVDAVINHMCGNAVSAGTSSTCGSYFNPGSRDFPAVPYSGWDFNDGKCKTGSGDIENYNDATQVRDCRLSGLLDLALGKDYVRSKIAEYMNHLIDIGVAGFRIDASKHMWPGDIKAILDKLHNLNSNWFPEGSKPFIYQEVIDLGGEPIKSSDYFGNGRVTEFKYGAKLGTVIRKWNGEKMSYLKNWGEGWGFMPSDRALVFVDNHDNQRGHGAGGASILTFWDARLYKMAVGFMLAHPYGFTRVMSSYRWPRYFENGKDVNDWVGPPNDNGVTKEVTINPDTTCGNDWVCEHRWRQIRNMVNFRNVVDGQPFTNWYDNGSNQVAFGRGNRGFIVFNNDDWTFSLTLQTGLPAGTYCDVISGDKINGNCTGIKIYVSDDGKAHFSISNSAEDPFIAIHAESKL
Procedure: (§1) Purified water was added to commercial HPA and HSA to dissolve them to a concentration of 350 IU/1 to prepare an α-amylase solution. “Calibzyme·AMY” (produced by International Reagents Corp., Japan) was used as this commercial human α-amylase. The α-amylase activity was determined with reference to the calibration curves of a commercial α-amylase determining reagent “Neo·Amylase Test, Daiichi” (produced by Daiichi Pure Chemicals Co., Ltd., Japan).
(§2) To 100 μl of the HPA or HSA solution were added 3.0 ml of purified water, 1.0 ml of inhibitor solution and one tablet of blue starch of “Neo·Amylase Test, Daiichi” (produced by Daiichi Pure Chemicals Co., Ltd., Japan). After stirring by a mixer for about 10 seconds, the mixture was warmed at 37° C. for 30 minutes and then further stirred by adding 1.0 ml of a 0.5 N sodium hydroxide solution to cease the reaction, after which the solution was centrifuged (1,500 G, 5 min.) and absorbance of the supernatant at 620 nm was measured. As a blank, purified water was used instead of the inhibitor solution.

mice [Crj:CD-1 (ICR)] = test: Anti-diabetic activity: blood glucose level after oral corn starch loading in mice; assay type: in vivo; settings: mice unfed 20 hours; oral DOGGDN 10 mg, 5 mg and 1 mg with 2,000 mg corn starch per kg; 0.5-4.0 hours; t-test; FIG. 1
Procedure: Commercially available healthy mice [Crj:CD-1 (ICR) available from Japan Charles River Co., Ltd.
Blood was collected from the orbital veniplex of each mouse just before administration and after the lapse of 0.5 hour, 1.0 hour, 1.5 hours, 2.0 hours, 3.0 hours and 4.0 hours after administration, and the concentration of glucose in the blood [blood glucose level (mg/dl)] was measured to examine the inhibitory effect against rise of blood glucose level after intake of corn starch, i.e. the anti-diabetic action. The inhibitory effect against rise of blood sugar level was judged by the t-test. The glucose concentration in the blood was determined using a blood glucose level analyzer “[sequence]” [mfd. by Bayer Sankyo Co., Ltd.].

[2] = target: T2, HPA (α-amylase derived from human pancreatic juice) (Homo sapiens, UniProt P04746); test: Inhibition of human α-amylase activity in vitro (blue starch, Neo·Amylase Test), HPA; assay type: biochemical; settings: final concentration of inhibitor reducing 50% of the activity of the HPA solution; 37° C., 30 minutes
T2 construct: purchased International Reagents Corp., Japan Calibzyme·AMY
T2 sequence (P04746 16-511): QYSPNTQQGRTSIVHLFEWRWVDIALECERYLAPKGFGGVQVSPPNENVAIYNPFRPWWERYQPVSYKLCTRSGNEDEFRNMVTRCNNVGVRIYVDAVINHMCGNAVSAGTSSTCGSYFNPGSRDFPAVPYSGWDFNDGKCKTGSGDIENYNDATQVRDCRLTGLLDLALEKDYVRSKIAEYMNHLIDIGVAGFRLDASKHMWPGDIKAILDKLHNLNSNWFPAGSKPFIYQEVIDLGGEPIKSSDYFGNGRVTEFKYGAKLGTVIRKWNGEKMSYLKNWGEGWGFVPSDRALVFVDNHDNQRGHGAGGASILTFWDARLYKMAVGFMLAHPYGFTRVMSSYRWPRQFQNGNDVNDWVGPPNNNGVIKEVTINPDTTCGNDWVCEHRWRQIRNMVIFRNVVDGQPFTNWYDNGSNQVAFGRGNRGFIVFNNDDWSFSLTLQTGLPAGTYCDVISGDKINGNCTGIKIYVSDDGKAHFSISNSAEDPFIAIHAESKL
Procedure: as §1, §2

| Compound | IC50 [1] | rise of blood glucose level as compared with the control group (mice [Crj:CD-1 (ICR)]) | IC50 [2] |
| --- | --- | --- | --- |
| CC1OC(OC2C(CO)OC(OC3C(CO)NCC(O)C3O)C(O)C2O)C(O)C(O)C1O [DOGGDN, O-(6-deoxy)-α-D-glucopyranosyl-(1→4)-O-(α-D-glucopyranosyl)-(1→4)-deoxynojirimycin] | 0.03 mM | reduced significantly |  |
| CC1OC(OC2C(CO)OC(OC3C(CO)NCC(O)C3O)C(O)C2O)C(O)C(O)C1OC1OC(CO)C(O)C(O)C1O [GDOGGDN, O-(α-D-glucopyranosyl)-(1→4)-O-(6-deoxy-α-D-glucopyranosyl)-(1→4)-O-(α-D-glucopyranosyl)-(1→4)-deoxynojirimycin] | 0.03 mM |  | 0.05 mM |
| OCC1NCC(O)C(O)C1OC1OC(CO)C(OC2OC(CO)C(O)C(O)C2O)C(O)C1O (stereo not drawn) [GGDN, Maltosyl-deoxynojirimycin, reference compound] | 0.26 mM |  | 0.26 mM |
